Calls of active or inactive are those of the source. The calls are words filed in the database; no cut-off is given here.
Tests used:
PC-12 [1] = experiment: Induction of autophagic degradation of alpha-synuclein in rat PC12 cells cotransfected with GFP-LC3 and alpha-synuclein-myc at 10 uM after 12 hrs by Western blot analysis in presence of bafilomycin A1; format: functional, cell-based
[2] = target: T1, c-Jun N-terminal kinase, JNK (Homo sapiens) (UniProt P45983+P53779+P45984); experiment: Induction of JNK phosphorylation in human HeLa cells stably expressing GFP-LC3 assessed as increase of the LC3-II level at 5 uM after 6 hrs by Western blot analysis in presence of SP600125; format: cell-based
U2OS = experiment: Induction of LC3 autophagy in human U2OS cells stably expressing GFP-LC3 assessed as increasing number of punctuate GFP-LC3 dots at 10 uM after 6 hrs by confocal microscopy; format: functional, cell-based
HeLa [3] = experiment: Induction of mitochondrial dysfunction in human HeLa cells stably expressing GFP-LC3 assessed as loss of mitochondrial membrane potential at 10 uM after 6 to 24 hrs using TMRE staining by flow cytometry; format: functional, cell-based
HeLa [4] = experiment: Induction of mitochondrial dysfunction in human HeLa cells at 10 uM after 6 hrs using anti-Tim23 antibody by confocal microscopy; format: functional, cell-based
HeLa [5] = experiment: Induction of LC3 autophagy in human HeLa cells stably expressing GFP-LC3 assessed as increasing number of punctuate GFP-LC3 dots at 5 to 10 uM by confocal microscopy; format: functional, cell-based; conditions: TDE = time-dependent effect
HeLa [6] = experiment: Induction of mitochondrial dysfunction in human HeLa cells at 10 uM after 6 to 24 hrs using anti-Tom20 and anti-Tim23 antibodies by Western blotting; format: functional, cell-based
HeLa [7] = experiment: Induction of mitochondrial dysfunction in human HeLa cells stably expressing GFP-LC3 at 10 uM after 6 to 24 hrs using anti-Tim23 antibodies by Western blotting; format: functional, cell-based
HeLa [8] = experiment: Induction of LC3 autophagy in Beclin1 KO human HeLa cells stably expressing GFP-LC3 and transfected of Beclin2 siRNA assessed as increase of the LC3-II level at 10 uM after 6 hrs by Western blotting analysis; format: functional, cell-based
HeLa [9] = experiment: Induction of mitochondrial ROS production in human HeLa cells at 5 to 10 uM after 24 hrs using Mito-SOX by flow cytometry; format: functional, cell-based
HeLa [10] = experiment: Induction of cytosolic ROS production in human HeLa cells at 5 to 10 uM after 24 hrs using DCF by flow cytometry; format: functional, cell-based
HeLa [11] = experiment: Induction of LC3 autophagy in human HeLa cells stably expressing GFP-LC3 assessed as increasing number of punctuate GFP-LC3 dots at 10 uM after 6 hrs by confocal microscopy in presence of bafilomycin A1; format: functional, cell-based
HeLa [12] = experiment: Induction of LC3 autophagy in ATG5 KO human HeLa cells stably expressing GFP-LC3 assessed as increase of the LC3-II level at 10 uM after 6 hrs by Western blotting analysis; format: functional, cell-based
HeLa [13] = experiment: Induction of LC3 autophagy in human HeLa cells stably expressing GFP-LC3 assessed as increasing number of punctuate GFP-LC3 dots at 10 uM after 6 hrs by confocal microscopy; format: functional, cell-based
HeLa [14] = experiment: Induction of LC3 autophagy in human HeLa cells stably expressing GFP-LC3 assessed as increase of the LC3-II level after 12 to 24 hrs by Western blotting analysis; format: functional, cell-based
HeLa [15] = experiment: Induction of LC3 autophagy in Beclin1 KO human HeLa cells stably expressing GFP-LC3 assessed as increase of the LC3-II level at 10 uM after 6 hrs by Western blotting analysis; format: functional, cell-based
SH-SY5Y = experiment: Induction of LC3 autophagy in human SH-SY5Y cells stably expressing GFP-LC3 assessed as increasing number of punctuate GFP-LC3 dots at 10 uM after 6 hrs by confocal microscopy; format: functional, cell-based
PC-12 [16] = experiment: Induction of autophagic degradation of alpha-synuclein in rat PC12 cells cotransfected with GFP-LC3 and alpha-synuclein-myc assessed as reduction in protein level at 10 uM after 12 hrs by Western blot analysis; format: functional, cell-based
HeLa [17] = experiment: Induction of autophagy in human HeLa cells stably expressing GFP-LC3 assessed as increasing number of punctuate GFP-LC3 dots by high-throughput screening; format: functional, cell-based
[18] = target: T1, c-Jun N-terminal kinase, JNK (Homo sapiens); experiment: Induction of JNK phosphorylation in human HeLa cells stably expressing GFP-LC3 assessed as punctuate GFP-LC3 formation at 5 uM after 6 hrs by confocal microscopy in presence of SP600125; format: cell-based
HeLa [19] = experiment: Induction of mitochondrial dysfunction in human HeLa cells stably expressing GFP-LC3 assessed as loss of mitochondrial membrane potential at 10 uM after 6 to 24 hrs using TMRE staining by confocal microscopy; format: functional, cell-based
HeLa [20] = experiment: Induction of ROS production in human HeLa cells stably expressing GFP-LC3 assessed as increasing number of punctuate GFP-LC3 dots at 5 to 10 uM after 6 hrs by confocal microscopy in presence of ROS scavenger NAC; format: functional, cell-based
HeLa [21] = experiment: Induction of LC3 autophagy in human HeLa cells stably expressing GFP-LC3 assessed as increase of the LC3-II level at 10 uM after 6 hrs by immunoblotting; format: functional, cell-based
HeLa [22] = experiment: Induction of LC3 autophagy in ATG5 KO human HeLa cells stably expressing GFP-LC3 assessed as increasing number of punctuate GFP-LC3 dots at 10 uM after 6 hrs by confocal microscopy; format: functional, cell-based
PC-12 [23] = experiment: Induction of autophagic degradation of alpha-synuclein in […] KO rat PC12 cells cotransfected with GFP-LC3 and alpha-synuclein-myc at 10 uM after 12 hrs by Western blot analysis; format: functional, cell-based
PC-12 [24] = experiment: Induction of autophagic degradation of alpha-synuclein in rat PC12 cells cotransfected with GFP-LC3 assessed as co-localiztion of alpha-synuclein with GFP-LC3 puncta by confocal microscopy; format: functional, cell-based
HeLa [25] = experiment: Induction of LC3 autophagy in human HeLa cells stably expressing GFP-LC3 assessed as increasing number of punctuate GFP-LC3 dots after 6 to 24 hrs by confocal microscopy; format: functional, cell-based
HeLa [26] = experiment: Induction of mitochondrial dysfunction in human HeLa cells assessed as reduction in mitochondrial mass at 10 uM after 6 to 24 hrs using anti-Tom20 and anti-Tim23 antibodies by Western blotting; format: functional, cell-based
HeLa [27] = experiment: Induction of LC3 autophagy in human HeLa cells stably expressing GFP-LC3 assessed as increase of the LC3-II level at 1 to 20 uM by Western blotting analysis; format: functional, cell-based; conditions: TDE = time-dependent effect
[28] = target: T1, c-Jun N-terminal kinase, JNK (Homo sapiens); experiment: Induction of JNK phosphorylation in human HeLa cells stably expressing GFP-LC3 assessed as punctuate GFP-LC3 formation at 5 uM after 6 hrs by confocal microscopy; format: cell-based
[29] = target: T1, c-Jun N-terminal kinase, JNK (Homo sapiens); experiment: Induction of JNK phosphorylation in human HeLa cells stably expressing GFP-LC3 assessed as increase of the LC3-II level at 5 uM after 6 hrs by Western blot analysis; format: cell-based
HeLa [30] = experiment: Induction of LC3 autophagy in human HeLa cells stably expressing GFP-LC3 assessed as increase of the LC3-II level at 10 uM after 6 hrs by Western blotting analysis in presence of bafilomycin A1; format: functional, cell-based
HeLa [31] = experiment: Induction of ROS production in human HeLa cells stably expressing GFP-LC3 assessed as increase of the LC3-II level at 5 to 10 uM after 6 hrs by Western blot analysis in presence of ROS scavenger NAC; format: functional, cell-based

CC(C)=C[C@H]1C[C@H](C)[C@]2(CC[C@]3(C)C[C@@H]4C(C)=CC(=O)[C@]4(O)/C(C=O)=C\C[C@H]32)O1
Activity (PC-12 [1]): inactive
Activity [2]: inactive
Activity (U2OS): Active
Activity (HeLa [3]): Active
Activity (HeLa [4]): Active
Activity (HeLa [5]): tde
Activity (HeLa [6]): inactive
Activity (HeLa [7]): inactive
Activity (HeLa [8]): inactive
Activity (HeLa [9]): Active
Activity (HeLa [10]): Active
Activity (HeLa [11]): Active
Activity (HeLa [12]): inactive
Activity (HeLa [13]): Active
Activity (HeLa [14]): Dose-dependent effect
Activity (HeLa [15]): Active
Activity (SH-SY5Y): Active
Activity (PC-12 [16]): Active
Activity (HeLa [17]): Active
Activity [18]: inactive
Activity (HeLa [19]): Active
Activity (HeLa [20]): inactive
Activity (HeLa [21]): Active
Activity (HeLa [22]): inactive
Activity (PC-12 [23]): inactive
Activity (PC-12 [24]): Active
Activity (HeLa [25]): Dose-dependent effect
Activity (HeLa [26]): inactive
Activity (HeLa [27]): tde
Activity [28]: Active
Activity [29]: Active
Activity (HeLa [30]): Active
Activity (HeLa [31]): inactive

CC(C)=C[C@H]1C[C@H](C)[C@]2(CC[C@]3(C)C[C@@H]4C(C)=CC(=O)[C@@H]4/C(C=O)=C\C[C@H]32)O1
Activity (HeLa [13]): inactive

— ChEMBL document CHEMBL3400017, “3-Anhydro-6-hydroxy-ophiobolin A, a fungal sesterterpene from Bipolaris oryzae induced autophagy and promoted the degradation of α-synuclein in PC12 cells” (Bioorg Med Chem Lett, 2015)
